Source: paper PMC4932617 (Meta Gene, 2016)

Experiments:
intra-gastric pH = assay: Intra-gastric pH monitoring; type: in vivo, human; conditions: for pH on Day 6: n=1; for Difference in intra-gastric pH between baseline and day 6: rapid and ultra-rapid metabolizers (CYP2C19*17 carriers)
[1] = higher in poor than in extensive metabolizers; ref Klotz, 2006; cited from earlier work

COc1ccc2nc([S@@+]([O-])Cc3ncc(C)c(OC)c3C)[nH]c2c1 [Esomeprazole]
pH on Day 6 (intra-gastric pH; normal metabolizer, esomeprazole 40 mg/day for 5 days, baseline pH 0.40): 3.40
Difference in intra-gastric pH between baseline and day 6 (intra-gastric pH; 40 mg/day for 5 days): noteworthy differences could not be observed
pH on Day 6 (intra-gastric pH; rapid metabolizer, esomeprazole 40 mg/day for 5 days, baseline pH 1.25): 1.20

COc1ccnc(C[S+]([O-])c2nc3ccc(OC(F)F)cc3[nH]2)c1OC (stereo not drawn) [Pantoprazole]
pH on Day 6 (intra-gastric pH; normal metabolizer, pantoprazole 40 mg/day for 5 days, baseline pH 1.50): 4.10
Gastric acid suppression compared to esomeprazole (intra-gastric pH; poor and intermediate metabolizers, 40 mg/day for 5 days): improved gastric acid suppression
Difference in intra-gastric pH between baseline and day 6 (intra-gastric pH; 40 mg/day for 5 days): noteworthy differences could not be observed

Cc1c(OCC(F)(F)F)ccnc1C[S+]([O-])c1nc2ccccc2[nH]1 (stereo not drawn) [lansoprazole]
AUC in poor metabolizers relative to extensive metabolizers [1]: 4.5 fold

COc1ccc2[nH]c([S+]([O-])Cc3ncc(C)c(OC)c3C)nc2c1 (stereo not drawn) [omeprazole]
AUC in poor metabolizers relative to extensive metabolizers [1]: 7.5 fold

COCCCOc1ccnc(C[S+]([O-])c2nc3ccccc3[nH]2)c1C (stereo not drawn) [rabeprazole]
AUC in poor metabolizers relative to extensive metabolizers [1]: 4 fold
